14 compounds from ChEMBL document CHEMBL5046232, “Affinity-based protein profiling identifies vitamin D3 as a heat shock protein 70 antagonist that regulates hedgehog transduction in murine basal cell carcinoma” (Eur J Med Chem, 2022) can be followed below.

The nature of assay [1]: Inhibition of hedgehog signalling in mouse ASZ001 cells assessed as reduction in Gli1 mRNA expression measured after 48 hrs by RT-PCR analysis. It is filed as cell-based. As to conditions: ASZ001, 48 h.
Assay [2] in a line: Binding affinity to recombinant human HSP70 assessed as dissociation constant incubated for 1 hrs […].
For a further assay, the species on record is Mus musculus. Description: Selectivity index, ratio of IC50 for Inhibition of hedgehog signalling in mouse VDR-KO MEF cells to IC50 for inhibition of hedgehog signalling in mouse ASZ001 cells. It is filed as cell-based.
Assay [3] is described as follows: Inhibition of hedgehog signalling in mouse Ptch-KO MEF cells assessed as reduction in Gli1 mRNA expression measured after 48 hrs by RT-PCR analysis. It is filed as cell-based.
Assay [4] deals with MEF. Description: Inhibition of hedgehog signalling in mouse Sufu-KO MEF cells assessed as upregulation of Cyp27A1 expression by immunoblot analysis. It is filed as cell-based.
Assay [5] deals with T1, Vitamin D3 receptor (Mus musculus) (UniProt P48281).
T1 sequence (whole entry): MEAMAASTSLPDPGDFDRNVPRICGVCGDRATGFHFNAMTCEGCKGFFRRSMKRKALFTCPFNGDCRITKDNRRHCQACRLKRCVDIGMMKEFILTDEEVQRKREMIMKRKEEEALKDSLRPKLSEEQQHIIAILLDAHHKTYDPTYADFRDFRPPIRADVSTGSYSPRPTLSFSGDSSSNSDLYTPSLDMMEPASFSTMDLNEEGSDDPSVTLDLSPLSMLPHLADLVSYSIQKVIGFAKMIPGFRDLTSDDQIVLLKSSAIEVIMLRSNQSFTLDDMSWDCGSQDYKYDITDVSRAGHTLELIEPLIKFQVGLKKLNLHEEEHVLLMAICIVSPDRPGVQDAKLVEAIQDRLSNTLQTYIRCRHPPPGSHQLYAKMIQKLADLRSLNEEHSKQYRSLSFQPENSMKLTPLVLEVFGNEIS
Description: Activation of VDR in mouse ASZ001 cells assessed as upregulation of Cyp24A1 mRNA expression at 5 uM measured after 48 hrs by RT-PCR analysis relative to control. The assay is classed as cell-based.

A short description of assay [6]: Inhibition of hedgehog signalling in mouse C3H 10T1/2 cells assessed as reduction in Gli1 mRNA expression measured after 48 hrs by RT-PCR analysis. It is filed as cell-based. As to conditions: C3H 10T1/2, 48 h.
Assay [7] deals with MEF. Description: Inhibition of hedgehog signalling in mouse Sufu-KO MEF cells assessed as upregulation of Cyp27B1 expression by immunoblot analysis. The assay is classed as cell-based. (Immunoblotting shows a protein as a band on a membrane.)
Assay [8] has as its system ASZ001. Description: Inhibition of hedgehog signalling in mouse ASZ001 cells assessed as upregulation of Cyp27A1 expression by immunoblot analysis. The assay is classed as cell-based.
The subject of assay [9] is ASZ001. Description: Inhibition of hedgehog signalling in mouse ASZ001 cells assessed as upregulation of Cyp27B1 expression by immunoblot analysis. The assay is classed as cell-based.
Assay [10] has as its target T1, Vitamin D3 receptor (Mus musculus). Description: Activation of VDR in mouse C3H 10T1/2 cells assessed as upregulation of Cyp24A1 mRNA expression at 5 uM measured after 48 hrs by RT-PCR analysis relative to control. The assay is classed as cell-based.
The subject of assay [11] is MEF. Description: Inhibition of hedgehog signalling in mouse Sufu-KO MEF cells assessed as upregulation of VDR expression at >15 uM in by immunoblot analysis. The assay is classed as cell-based. The conditions noted are these: dose microM >15.
In assay [12] the test system is ASZ001. Description: Inhibition of hedgehog signalling in mouse ASZ001 cells assessed as downregulation of VDR expression in by immunoblot analysis. The assay is classed as cell-based.
Assay [13] in a line: Inhibition of hedgehog signalling in mouse Sufu-KO MEF cells assessed as reduction in Gli1 mRNA expression measured after 48 hrs by RT-PCR analysis. The assay is classed as cell-based.
For a further assay, the system named is C3H 10T1/2. Description: Antiproliferative activity against mouse C3H 10T1/2 assessed as reduction in cell proliferation incubated for 72 hrs by MTS assay. It is filed as functional, cell-based. A general note: Tetrazolium dyes change colour on reduction, which living cells bring about.
Assay [14] has as its system ASZ001. Description: Antiproliferative activity against mouse ASZ001 assessed as reduction in cell proliferation incubated for 72 hrs by MTS assay. The assay is classed as functional, cell-based.
For assay [15], the species on record is Homo sapiens. Description: Binding affinity to recombinant human HSP70 at 200 uM incubated for 1 hrs in presence of calcidiol by Western blotting based pull-down assay.
For assay [16], the species on record is Homo sapiens. Description: Binding affinity to recombinant human HSP70 at 200 uM incubated for 1 hrs in presence of Calcitriol by Western blotting based pull-down assay. The conditions noted are these: filed as antagonist.
In assay [17] the test system is ASZ001. Description: Inhibition of hedgehog signalling in mouse ASZ001 cells assessed as reduction in Gli1 mRNA expression at 10 uM for 20 hrs by […]. It is filed as cell-based.
Assay [18] is filed under the species Homo sapiens. Description: Competitive binding affinity to recombinant human HSP70 at 200 uM incubated for 1 hrs in presence of Vitamin D3 by Western blotting based pull-down assay.
Assay [19] is filed under the species Homo sapiens. Description: Binding affinity to recombinant human HSP70 incubated for 1 hrs by Western blotting based pull-down assay. As to conditions: filed as antagonist.
For assay [20], the system named is MEF. Description: Inhibition of hedgehog signalling in mouse Sufu-KO MEF cells assessed as upregulation of VDR expression at 10 uM in by immunoblot analysis. The assay is classed as cell-based.
Assay [21] concerns ASZ001. Description: Inhibition of hedgehog signalling in mouse ASZ001 cells assessed as upregulation of VDR expression in by immunoblot analysis. The assay is classed as cell-based.
Assay [22] addresses T1, Vitamin D3 receptor (Mus musculus). Description: Activation of VDR in mouse C3H 10T1/2 cells assessed as upregulation of Cyp24A1 mRNA expression at 2.5 uM measured after 48 hrs by RT-PCR analysis relative to control. It is filed as cell-based. The conditions noted are these: filed as activator.
Assay [23] can be described thus: Inhibition of hedgehog signalling in mouse VDR-KO MEF cells assessed as reduction in Gli1 mRNA expression measured after 48 hrs by RT-PCR analysis. It is filed as cell-based.
For assay [24], the target named is T1, Vitamin D3 receptor (Mus musculus). Description: Activation of VDR in mouse ASZ001 cells assessed as upregulation of Cyp24A1 mRNA expression at 2.5 uM measured after 48 hrs by RT-PCR analysis relative to control. It is filed as cell-based. The conditions noted are these: filed as activator.

Each structure is given as a SMILES string. Activity calls are given as the source filed them. The calls are words filed in the database; no cut-off is given here.

What is called IC50 is the concentration that inhibits the measured activity by half. What is called Kd is the free concentration of one partner at which half of the binding sites on the other are occupied at equilibrium, for simple one-to-one binding. `C=C1CC[C@H](O)C/C1=C/C=C1\CCC[C@]2(C)[C@@H]([C@H](C)CCCC(C)C)CC[C@@H]12` [CHOLECALCIFEROL]: the IC50 amounted to 2.1 µM in assay [1]; 5.8 µM in assay [3]; 4.1 µM in [6]; 13.6 µM in [13] (Mus musculus, MEF, 48 h, read-out: IC50). The equilibrium dissociation constant (Kd) in assay [2] was determined as 1.4 µM. The Ratio IC50 in the assay listed under Mus musculus was found to be 2. For the same compound, the Activity result is “Dose-Dependent Effect” in the assay on MEF [4], 100% in [5] (filed as activator), “Dose-Dependent Effect” with MEF [7] and 100% in [10] (filed as activator). For the same compound, the outcome in the assay on ASZ001 [8], in the assay on ASZ001 [9] and in the assay with ASZ001 [12] was inactive. Besides, the inhibition entry in the assay with MEF [11] is “Active”.

Take `C#CCO[C@H](CCC(C)C)[C@@H](C)[C@H]1CC[C@H]2/C(=C/C=C3/C[C@@H](O)CCC3=C)CCC[C@]12C`: the IC50 in assay [1] turned out to be 0.43 µM; in assay [6] it was 1.1 µM. The Activity is 9% in [5] and less than 1% in assay [10].

As for `C=C1CC[C@H](O)C/C1=C/C=C1\CCC[C@]2(C)[C@@H]([C@H](C)[C@@H](O)CCC(C)(C)O)CC[C@@H]12`, the IC50 in assay [1] came to 1.7 µM; in assay [6], 1.2 µM. Also, the Kd in assay [2] is greater than 50 µM. Moreover, the Activity was determined as 130% in assay [5] (filed as activator) and 540% in assay [10] (filed as activator).

As to `C=C1CC[C@H](O)C/C1=C/C=C1\CCC[C@]2(C)[C@@H]([C@H](C)[C@H](CCC(C)(C)O)OCc3cn(CCOCCOCCOCCNC(=O)CCCC[C@H]4SC[C@H]5NC(=O)N[C@H]54)nn3)CC[C@@H]12`, the IC50 in [1] was 3.4 µM; in assay [6], 7.2 µM. In addition, the outcome in the assay on C3H 10T1/2 and in the assay with ASZ001 [14] was Active. Also, the Activity in assay [5] and in assay [10] was less than 1% throughout.

For `C=C1CC[C@H](O)C/C1=C/C=C1\CCC[C@]2(C)[C@@H]([C@H](C)[C@@H](CCC(C)(C)O)OCc3cn(CCOCCOCCOCCNC(=O)CCCC[C@H]4SC[C@H]5NC(=O)N[C@H]54)nn3)CC[C@@H]12`, the result in the assay listed under Homo sapiens [15] and in the assay listed under Homo sapiens [18] was inactive. The IC50 in [1] came to 1.1 µM; in assay [6], 1.9 µM. The outcome in the assay with C3H 10T1/2, in the assay listed under Homo sapiens [16], in the assay with ASZ001 [14] and in the assay on ASZ001 [17] was Active. Besides, the Activity was less than 1% in [5], less than 1% in assay [10] and “Dose-Dependent Effect” in the assay filed under Homo sapiens [19].

In the case of `C#CCO[C@H](CCC(C)(C)O)[C@@H](C)[C@H]1CC[C@H]2/C(=C/C=C3/C[C@@H](O)CCC3=C)CCC[C@]12C`, the IC50 in assay [1] stood at 13.8 µM. Further, the Activity in [5] is less than 1%.

Turning to `C=C1/C(=C\C=C2/CCC[C@]3(C)[C@@H]([C@H](C)CCCC(C)(C)O)CC[C@@H]23)C[C@@H](O)C[C@@H]1O`, the outcome in the assay with MEF [20] and in the assay with ASZ001 [21] was Active.

For the compound `C=C1CC[C@H](O)C/C1=C/C=C1\CCC[C@]2(C)[C@@H]([C@H](C)[C@H](O)CCC(C)(C)O)CC[C@@H]12`, the results for the IC50 in [1] and in assay [6] were 0.71 µM and 0.79 µM, respectively. Also, in assay [2], the equilibrium dissociation constant (Kd) was determined as 40.3 µM. Also, the values for the Activity in [5] (filed as activator) and in assay [10] (filed as activator) were 122% and 527%, respectively.

On to `C=C1CC[C@H](O)C/C1=C/C=C1\CCC[C@]2(C)[C@@H]([C@H](C)[C@@H](O)CCC(C)C)CC[C@@H]12`, for which the IC50 in assay [1] came to 0.38 µM; in assay [6] it was 1.3 µM. For the same compound, the Kd in assay [2] is 11.5 µM. The Activity in [5] (filed as activator) came out at 105%; in assay [10] (filed as activator), 261%.

As for `C#CCO[C@@H](CCC(C)C)[C@@H](C)[C@H]1CC[C@H]2/C(=C/C=C3/C[C@@H](O)CCC3=C)CCC[C@]12C`, the values for the IC50 in [1] and in assay [6] were 0.26 µM and 2.6 µM, respectively. For the same compound, the Activity in assay [5] and in [10] was less than 1% throughout.

`C=C1CC[C@H](O)C/C1=C/C=C1\CCC[C@]2(C)[C@@H]([C@H](C)[C@H](O)CCC(C)C)CC[C@@H]12`: the IC50 worked out at 0.42 µM in assay [1] and 1.2 µM in [6]. In addition, the Kd in assay [2] stood at 4.3 µM. Moreover, the Activity in assay [5] (filed as activator) is 103%; in assay [10] (filed as activator), 214%.

`COc1ccc(-c2nc(-c3cc(C(F)(F)F)cc(C(F)(F)F)c3)n(Cc3ccc(C(N)=O)cc3)c2-c2ccc(OC)cc2)cc1`: the IC50 is 0.58 µM in assay [1], 1.7 µM in [3], 0.97 µM in [6] and “Not Active” in assay [13] (mef). Further, the Kd in [2] amounted to 0.84 µM.

For `C=C1CC[C@H](O)C/C1=C/C=C1\CCC[C@]2(C)[C@@H]([C@H](C)CCCC(C)(C)O)CC[C@@H]12` [CALCIFEDIOL ANHYDROUS], the IC50 in assay [1] amounted to 0.4 µM; in assay [23] it was 4.4 µM; in assay [6], 0.48 µM. Also, in [2], the Kd stood at 6.5 µM. The Ratio IC50 in the assay filed under Mus musculus came out at 11. Moreover, the Activity in assay [22] and in [24] was greater than 500% throughout.

As to `CCn1c(=O)/c(=C2\Sc3ccccc3N2C)s/c1=C\c1cccc[n+]1CC.[Cl-]`, the IC50 was 1.8 µM in assay [1], 9.5 µM in assay [3], 5.6 µM in [6] and “Not Active” in assay [13] (mef).
